According to publication PMC8688338 (Molecular microbiology, 2021):
Several values for one entry are separate records, joined by “and”; a condition that tells them apart may be missing. Equal values may be shown once. Read-outs that look alike come from different tables or passages of the source.

How the values were obtained:
[1] = tested on: T. vaginalis trophozoites; assay: [3H]-guanine transport in T. vaginalis trophozoites; type: cell-based, Trichomonas vaginalis; details: 2 µM [3H]-guanine
[2] = tested on: O=c1ccn([C@@H]2O[C@H](CO)[C@@H](O)[C@H]2O)c(=O)[nH]1; assay: cells, lysate or membranes; details: other: single experiment, Fig. 11D inset
[3] = tested on: T. vaginalis nucleoside transporters, Adenosine (HA); assay: High affinity [3H]-adenosine transport in T. vaginalis trophozoites; type: cell-based, Trichomonas vaginalis; details: for Ki: read-out: Ki,app, inhibition of […] [3H]-adenosine transport, monophasic
[4] = biological target: T. vaginalis nucleoside transporters, Guanosine (HA); assay: [3H]-guanosine transport in T. vaginalis trophozoites; type: cell-based, Trichomonas vaginalis; details: read-out: Ki,app; inhibition of [3H]-guanosine transport; monophasic sigmoid curve; average and SEM
[5] = biological target: T. vaginalis nucleoside transporters, Inosine (LA); assay: Low affinity [3H]-inosine transport in T. vaginalis trophozoites; type: cell-based, Trichomonas vaginalis; details: read-out: Ki,app, inhibition of 1 µM [3H]-inosine uptake, average and SEM
[6] = biological target: T. vaginalis nucleoside transporters, Uridine (HA); assay: [3H]-uridine transport in T. vaginalis trophozoites; type: cell-based, Trichomonas vaginalis; details: read-out: Ki,app; inhibition of 0.5 µM [3H]-uridine transport, 30 s; average and SEM
[7] = biological target: T. vaginalis nucleoside transporters, Cytidine (HA); assay: High affinity [3H]-cytidine transport in T. vaginalis trophozoites; type: cell-based, Trichomonas vaginalis; details: read-out: Ki,app, inhibition of […] [3H]-cytidine transport, 30 s, average and SEM
[8] = tested on: T. vaginalis nucleoside transporters, Adenosine (LA); assay: Low affinity adenosine transport; type: cell-based, Trichomonas vaginalis; details: for EC50 / Ki: inhibition of 20 µM [3H]-adenosine transport; for EC50: Fig. 4; for Km: read-out: Km,app; for inhibition of transport: highest tested concentration: guanosine 250 µM, adenine 1 mM, hypoxanthine 1 mM, uracil 10 mM; for Ki: read-out: Ki,app
[9] = biological target: T. vaginalis nucleoside transporters, Cytidine (LA); assay: Low affinity cytidine transport in T. vaginalis trophozoites; type: cell-based, Trichomonas vaginalis; details: read-out: Ki,app; inhibition of Cytidine (LA) transport; average and SEM
[10] = tested on: T. vaginalis nucleoside transporters, Thymidine (LA); assay: Low affinity thymidine transport; type: cell-based, Trichomonas vaginalis; details: for EC50: Fig. 3E
[11] = tested on: low affinity pyrimidine nucleobase transporter of T. vaginalis; assay: [3H]-uracil transport in T. vaginalis trophozoites; type: cell-based, Trichomonas vaginalis; details: for inhibition of uracil transport: uridine, thymidine up to 10 mM, adenosine, inosine up to 1 mM
[12] = tested on: T. vaginalis adenine transporter; assay: [3H]-adenine transport in T. vaginalis trophozoites; type: cell-based, Trichomonas vaginalis
[13] = tested on: T. vaginalis nucleoside transporters; details: ref Harris et al., 1988; cited from earlier work
[14] = biological target: TvagENT6 (Trichomonas vaginalis, UniProt A2EMT5); assay: cell-based
[15] = biological target: TvagENT3 (Trichomonas vaginalis, UniProt A2E5Q3); assay: [3H]-cytidine uptake by T. brucei TbAT1-KO cells expressing TvagENT3
[16] = tested on: T. vaginalis nucleoside transporters, Thymidine (HA); assay: Higher affinity [3H]-thymidine transport; type: cell-based, Trichomonas vaginalis; details: for inhibition of transport: nucleobase at 1 mM
[17] = tested on: T. vaginalis trophozoites; details: 1 µM [3H]-hypoxanthine over 300 s, with or without 1 mM unlabelled hypoxanthine
[18] = tested on: uracil transporter; type: cell-based, Trypanosoma brucei; details: 0.25 µM [3H]-uridine, control (empty vector) cells, 250 µM uracil
[19] = tested on: vaginal trichomonad infection; details: murine model of vaginal trichomonad infection; ref Natto et al., 2021; cited from earlier work
[20] = tested on: P1 transporter; details: thymidine uptake by P1 transporter; ref De Koning and Jarvis, 1999; cited from earlier work
[21] = single experiment, Fig. 5D inset
[22] = Lineweaver-Burk double reciprocal plot, single experiment, Fig. 3F
[23] = single experiment, Fig. 3C inset
[24] = saturation curve, single experiment, Fig. 3E inset

## Nc1nc2nc[nH]c2c(=O)[nH]1 [guanine]
[1]
  rate of uptake: 0.017 ± 0.002 pmol(10^7 cells)^−1s^−1 and 0.0167 ± 0.0020 pmol(10^7 cells)^−1s^−1

## TvagENT6 (Trichomonas vaginalis G3)
[2]
  Km: 125.4 µM

## Nc1ncnc2c1ncn2[C@@H]1O[C@H](CO)[C@@H](O)[C@H]1O [adenosine]
[3]; 0.25 µM [3H]-adenosine + 1 mM unlabelled adenosine
  rate of transport in the presence of unlabelled permeant: 0.0091 ± 0.0085 pmol(10^7 cells)^−1s^−1
[3]; 0.25 µM [3H]-adenosine by 1 mM unlabelled adenosine
  inhibition of uptake: > 99%
[3]; 0.25 µM [3H]-adenosine, over 60 s, uninhibited
  rate of transport: 1.15 pmol(10^7 cells)^−1s^−1 and 1.15 ± 0.06 pmol(10^7 cells)^−1s^−1
[3]; Adenosine (HA), average and SEM
  Vmax: 9.5 ± 2.4 pmol(10^7 cells)^−1s^−1
[3]; read-out: Km,app, Adenosine (HA), […] [3H]-adenosine, 30 s, average and SEM
  Km: 6.2 ± 0.6 µM
[4]
  Ki: 4.1 ± 0.9 µM
[5]
  Ki: 6.36 ± 1.69 µM
[5]; listed as Adenosine
  Ki: 6.4 ± 1.7 µM
[6]
  Ki: 8.16 ± 0.59 µM
[7]
  Ki: 2.18 ± 0.29 µM
[7]; listed as Adenosine
  Ki: 2.2 ± 0.3 µM
[8]; Adenosine (LA), average and SEM
  Vmax: 31 ± 2 pmol(10^7 cells)^−1s^−1
[8]; single experiment
  EC50: 60.5 µM
[8]; Adenosine (LA), 20 µM [3H]-adenosine, average and SEM
  Km: 59.4 ± 6.1 µM
[8]; Adenosine (LA), 20 µM [3H]-adenosine, average and SEM, listed as Adenosine
  Km: 59 ± 6 µM
[8]; single experiment, Fig. 4A inset
  Km: 63.5 µM
[9]
  Ki: 357 ± 32 µM
[10]; 1 µM [3H]-thymidine, single experiment
  EC50: 89.8 µM
[11]
  inhibition of uracil transport: unable to inhibit
[12]
  EC50: 85.9 µM
[12]; read-out: Ki,app, inhibition of 50 nM [3H]-adenine transport
  Ki: 155 ± 48 µM
[13]
  Km: 3.9 µM
[14]
  Ki: 47.2 ± 6.4 µM
[15]
  Hill slope: −1.04 ± 0.07
[15]; 0.5 µM [3H]-cytidine, inhibitor at 400 µM
  inhibition of cytidine uptake: completely
[15]; single experiment, Fig. 10D-F
  Hill slope: −1.1

## O=c1[nH]cnc2nc[nH]c12 [hypoxanthine]
[3]; 30 s, average and SEM
  Ki: 185 ± 37 µM
[16]; 125 nM [3H]-thymidine
  inhibition of transport: ≤ 50%
[8]; 20 µM [3H]-adenosine
  inhibition of transport: ≤ 50%
[8]; average and SEM
  Ki: > 1000 µM
[17]
  specific uptake: no specific uptake

## O=c1cc[nH]c(=O)[nH]1 [uracil]
[16]; 125 nM [3H]-thymidine
  inhibition of transport: ≤ 50%
[8]; 20 µM [3H]-adenosine
  inhibition of transport: ≤ 50%
[8]; average and SEM
  Ki: > 10000 µM
[11]; 0.5 µM [3H]-uracil
  rate of uptake: 0.0056 ± 0.0003 pmol(10^7 cells)^−1s^−1
[11]; 0.5 µM [3H]-uracil + 1 mM unlabelled uracil
  rate of uptake in the presence of unlabelled permeant: 0.0011 ± 0.0002 pmol(10^7 cells)^−1s^−1
[11]; 0.5 µM [3H]-uracil over 20 s, single experiment, Fig. 5D
  EC50: 247 µM
[11]; 0.5 µM [3H]-uracil, 20 s, average
  Vmax: 1.58 ± 0.08 pmol(10^7 cells)^−1s^−1
[11]; read-out: Km,app, 0.5 µM [3H]-uracil, 20 s, average
  Km: 257 ± 58 µM
[11]; [21]
  Km: 298 µM
  Vmax: 1.43 pmol(10^7 cells)^−1s^−1
[18]
  reduction of background uridine uptake: ~ 85% and 84.7%

## Nc1ncnc2c1c(-c1ccc(Cl)cc1)cn2[C@@H]1O[C@H](CO)[C@@H](O)[C@H]1O [7-(4-Cl-phenyl),7-deazaadenosine]
[19]
  efficacy: efficacious

## Cc1cn([C@H]2C[C@H](O)[C@@H](CO)O2)c(=O)[nH]c1=O [thymidine]
[3]; 30 s, average and SEM
  Ki: 274 ± 45 µM
[4]
  Ki: 206 ± 62 µM
[16]; 0.125 µM [3H]-thymidine by 1 mM unlabelled thymidine
  inhibition of uptake: 75%
[16]; 0.125 µM [3H]-thymidine, average of 4 experiments over 60 s
  rate of uptake: 0.0045 ± 0.0012 pmol(10^7 cells)^−1s^−1
[16]; [22]
  Vmax, higher affinity component: 2.2 pmol(10^7 cells)^−1s^−1
[16]; Thymidine (HA), average and SEM
  Vmax: 0.69 ± 0.37 pmol(10^7 cells)^−1s^−1
[16]; Thymidine (HA), average and SEM, listed as Thymidine
  Vmax: 6.7 ± 1.8 pmol(10^7 cells)^−1s^−1
[16]; inhibition of 0.125 µM [3H]-thymidine uptake, single experiment, Fig. 3C/D
  EC50: 11.7 µM
[16]; read-out: Km, higher affinity component, Lineweaver-Burk double reciprocal plot, single experiment, Fig. 3F
  Km: 23.6 µM
[16]; read-out: Km,app, Thymidine (HA), 125 nM [3H]-thymidine, average and SEM
  Km: 13.2 ± 0.8 µM
[16]; [23]
  Km: 15.1 µM
  Vmax: 0.245 pmol(10^7 cells)^−1s^−1
[8]; single experiment
  EC50: 817 µM
[8]; average and SEM
  Ki: 557 ± 135 µM
[10]; 1 µM [3H]-thymidine
  rate of uptake: 0.139 ± 0.008 pmol(10^7 cells)^−1s^−1
[10]; 1 µM [3H]-thymidine + 1 mM thymidine
  rate of uptake in the presence of unlabelled permeant: 0.013 ± 0.0018 pmol(10^7 cells)^−1s^−1
[10]; 1 µM [3H]-thymidine by 1 mM unlabelled thymidine
  inhibition of uptake: 90.6%
[10]; [22]
  Vmax, low affinity component: 12.0 pmol(10^7 cells)^−1s^−1
[10]; Thymidine (LA), average and SEM
  Vmax: 9.4 ± 2.5 pmol(10^7 cells)^−1s^−1
[10]; read-out: EC50, higher affinity component, 1 µM [3H]-thymidine, 2-site equation, single experiment
  EC50: 10.7 µM
[10]; read-out: EC50, lower affinity component, 1 µM [3H]-thymidine, 2-site equation, single experiment
  EC50: 529 µM
[10]; read-out: Km, low affinity component, Lineweaver-Burk double reciprocal plot, single experiment, Fig. 3F
  Km: 340 µM
[10]; read-out: Km,app, Thymidine (LA), 1 µM [3H]-thymidine, average and SEM
  Km: 470 ± 104 µM
[10]; [24]
  Km: 394 µM
  Vmax: 12.9 pmol(10^7 cells)^−1s^−1
[11]
  inhibition of uracil transport: unable to inhibit
[20]
  affinity: 44 µM
[15]
  Hill slope: −1.17 ± 0.15
  Ki: 286 ± 12 µM
[15]; read-out: inhibition of cytidine uptake
  inhibition at 400 µM: 62.6%
[15]; single experiment, Fig. 10D-F
  Hill slope: −1.1
